One may read the EC50 as the concentration giving half of the maximal effect.

We go through 35 molecules from patent publication US8772276B2, “Alkyne benzotriazole derivatives” (Merck Sharp & Dohme Corp., priority 2011, dated 2014).

This experiment deals with T1, recombinant human mGluR2 (Homo sapiens, UniProt Q14416).
T1 construct: expressed in transfected cells
As to the kind of experiment: FLIPR Ca2+ mobilization assay, mGluR2 potentiation. The experiment is classed as cell-based. The following applies: CHO dhfr- cells expressing human mGluR2 and Gα16, EC20 concentration of glutamate (900 nM). On the procedure:
Potencies are determined as follows. The compounds of the present invention may be tested in a fluorescence laser imaging plate reader (FLIPR) based assay. This assay is a common functional assay to monitor Ca^2+ mobilization in whole cells expressing recombinant receptor coupled with a promiscuous G-protein. CHO dhfr-cells stably expressing recombinant human mGluR2 and Gα16 loaded with Fluo-4 AM (Invitrogen, Carlsbad Calif.) are treated with varying concentrations of compounds and the Ca^2+ response is monitored on a FLIPR384 (Molecular Devices, Sunnydale Calif.) for agonist activity. The potentiation response is monitored after a subsequent addition of an EC20 concentration of glutamate (900 nM). The maximum calcium response at each concentration of compound for agonism or potentiation are plotted as dose responses curves fitted with a four parameters logistic equation giving EC50 and Hill coefficient using the iterative non linear curve fitting software program.
In general terms: Calcium assays in cells follow changes in intracellular calcium, usually with a dye or a luminescent sensor.

T1 sequence (Q14416 19-872): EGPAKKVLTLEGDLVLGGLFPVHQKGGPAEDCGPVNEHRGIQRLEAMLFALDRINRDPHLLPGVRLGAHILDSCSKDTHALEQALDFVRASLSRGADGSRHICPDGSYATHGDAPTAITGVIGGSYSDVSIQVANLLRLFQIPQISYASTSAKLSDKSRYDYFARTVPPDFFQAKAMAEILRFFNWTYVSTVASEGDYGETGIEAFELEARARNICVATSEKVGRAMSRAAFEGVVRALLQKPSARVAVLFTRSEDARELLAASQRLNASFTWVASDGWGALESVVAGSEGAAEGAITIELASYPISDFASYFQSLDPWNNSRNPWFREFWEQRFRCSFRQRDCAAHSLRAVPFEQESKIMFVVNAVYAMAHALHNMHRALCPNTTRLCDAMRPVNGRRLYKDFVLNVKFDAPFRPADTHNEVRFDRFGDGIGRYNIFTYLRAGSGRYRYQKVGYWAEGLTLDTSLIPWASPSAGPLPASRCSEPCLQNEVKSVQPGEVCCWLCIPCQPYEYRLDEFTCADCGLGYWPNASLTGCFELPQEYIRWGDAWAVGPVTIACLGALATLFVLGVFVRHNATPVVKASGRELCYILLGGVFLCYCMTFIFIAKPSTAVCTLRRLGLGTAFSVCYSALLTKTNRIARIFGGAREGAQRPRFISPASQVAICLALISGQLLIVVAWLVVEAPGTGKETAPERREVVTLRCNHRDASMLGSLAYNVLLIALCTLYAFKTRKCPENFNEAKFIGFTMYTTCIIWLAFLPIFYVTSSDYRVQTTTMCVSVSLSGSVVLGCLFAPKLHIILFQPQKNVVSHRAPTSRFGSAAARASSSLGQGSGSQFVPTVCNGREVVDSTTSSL

Turning to `CC(C)(C)Cn1nnc2c(Br)c(C#CC3CCN(C(=O)OC(C)(C)C)CC3)ccc21` [Example 1, tert-Butyl 4-{[4-bromo-1-(2,2-dimethylpropyl)-1H-benzotriazol-5-yl]ethynyl}piperidine-1-carboxylate], the EC50 came to 100 nM.

On to `CC(C)(C)Cn1nnc2c(Br)c(C#CC3CCNCC3)ccc21` [Example 2, 4-bromo-1-(2,2-dimethylpropyl)-5-(piperidin-4-ylethynyl)-1H-benzotriazole], for which the EC50 came out at 2710 nM.

With `CC(C)(C)OC(=O)N1CCC(F)(C#Cc2ccc3c(nnn3CC3CC3)c2Br)CC1` [Example 3], the EC50 was found to be 414 nM.

For `FC1(C#Cc2ccc3c(nnn3CC3CC3)c2Br)CCNCC1` [Example 4, 4-bromo-1-(cyclopropylmethyl)-5-[(4-fluoropiperidin-4-yl)ethynyl]-1H-benzotriazole], the EC50 was determined as 1220 nM.

Consider `CC(C)(C)Cn1nnc2c(Br)c(C#CC3CCN(CC(F)(F)F)CC3)ccc21` [Example 5, 4-bromo-1-(2,2-dimethylpropyl)-5-{[1-(2,2,2-trifluoroethyl)piperidin-4-yl]ethynyl}-1H-benzotriazole], for which the EC50 is 123 nM.

On to `Cc1ccncc1C#Cc1ccc2c(nnn2CC2CC2)c1Cl` [Example 6, 4-Chloro-1-(cyclopropylmethyl)-5-[(4-methylpyridin-3-yl)ethynyl]-1H-benzotriazole], for which the EC50 turned out to be 50 nM.

In the case of `Clc1c(C#Cc2cccnc2)ccc2c1nnn2CC1CC1` [Example 7, 4-chloro-1-(cyclopropylmethyl)-5-(pyridin-3-ylethynyl)-1H-benzotriazole], the EC50 was 34 nM.

Regarding `Clc1c(C#Cc2ccncc2)ccc2c1nnn2CC1CC1` [Example 8, 4-chloro-1-(cyclopropylmethyl)-5-(pyridin-4-ylethynyl)-1H-benzotriazole], the concentration for a half-maximal effect (EC50) came to 64 nM.

On to `Clc1c(C#Cc2ccccn2)ccc2c1nnn2CC1CC1` [Example 9, 4-chloro-1-(cyclopropylmethyl)-5-(pyridin-2-ylethynyl)-1H-benzotriazole], for which the half-maximal effective concentration (EC50) worked out at 85 nM.

As to `Clc1c(C#Cc2cnccn2)ccc2c1nnn2CC1CC1` [Example 10, 4-chloro-1-(cyclopropylmethyl)-5-(pyrazin-2-ylethynyl)-1H-benzotriazole], the concentration giving a half-maximal response (EC50) was determined as 80 nM.

For the molecule `Clc1c(C#Cc2ccnnc2)ccc2c1nnn2CC1CC1` [Example 11, 4-chloro-1-(cyclopropylmethyl)-5-(pyridazin-4-ylethynyl)-1H-benzotriazole], the EC50 came out at 203 nM.

As for `OCCC#Cc1ccc2c(nnn2CC2CC2)c1Cl` [Example 12, 4-[4-chloro-1-(cyclopropylmethyl)-1H-benzotriazol-5-yl]but-3-yn-1-ol], the EC50 amounted to 388 nM.

As for `OCC#Cc1ccc2c(nnn2CC2CC2)c1Cl` [Example 13, 3-[4-chloro-1-(cyclopropylmethyl)-1H-benzotriazol-5-yl]prop-2-yn-1-ol], the 50% effective concentration (EC50) was determined as 576 nM.

On to `OCCCC#Cc1ccc2c(nnn2CC2CC2)c1Cl` [Example 14, 5-[4-chloro-1-(cyclopropylmethyl)-1H-benzotriazol-5-yl]pent-4-yn-1-ol], for which the EC50 is 180 nM.

As to `O=Cc1cncc(C#Cc2ccc3c(nnn3CC3CC3)c2Cl)c1` [Example 15, 5-{[4-chloro-1-(cyclopropylmethyl)-1H-benzotriazol-5-yl]ethynyl}pyridine-3-carbaldehyde], the 50% effective concentration (EC50) came to 56 nM.

Consider `Cc1ncccc1C#Cc1ccc2c(nnn2CC2CC2)c1Cl` [Example 16, 4-chloro-1-(cyclopropylmethyl)-5-[(2-methylpyridin-3-yl)ethynyl]-1H-benzotriazole], for which the EC50 worked out at 50 nM.

With `Cc1ccc(C#Cc2ccc3c(nnn3CC3CC3)c2Cl)cn1` [Example 17, 4-chloro-1-(cyclopropylmethyl)-5-[(6-methylpyridin-3-yl)ethynyl]-1H-benzotriazole], the half-maximal effective concentration (EC50) is 140 nM.

Consider `Cc1cncc(C#Cc2ccc3c(nnn3CC3CC3)c2Cl)c1` [Example 18, 4-chloro-1-(cyclopropylmethyl)-5-[(5-methylpyridin-3-yl)ethynyl]-1H-benzotriazole], for which the EC50 was 57 nM.

Take `Clc1cncc(C#Cc2ccc3c(nnn3CC3CC3)c2Cl)c1` [Example 19, 4-chloro-5-[(5-chloropyridin-3-yl)ethynyl]-1-(cyclopropylmethyl)-1H-benzotriazole]: the EC50 was found to be 292 nM.

With `COc1cncc(C#Cc2ccc3c(nnn3CC3CC3)c2Cl)c1` [Example 20, 4-chloro-1-(cyclopropylmethyl)-5-[(5-methoxypyridin-3-yl)ethynyl]-1H-benzotriazole], the EC50 came to 50 nM.

In the case of `Fc1cncc(C#Cc2ccc3c(nnn3CC3CC3)c2Cl)c1` [Example 21, 4-chloro-1-(cyclopropylmethyl)-5-[(5-fluoropyridin-3-yl)ethynyl]-1H-benzotriazole], the concentration giving a half-maximal response (EC50) was 76 nM.

For the molecule `OCc1cncc(C#Cc2ccc3c(nnn3CC3CC3)c2Cl)c1` [Example 22, (5-{[4-chloro-1-(cyclopropylmethyl)-1H-benzotriazol-5-yl]ethynyl}pyridin-3-yl)methanol], the half-maximal effective concentration (EC50) is 57 nM.

In the case of `Nc1cncc(C#Cc2ccc3c(nnn3CC3CC3)c2Cl)c1` [Example 23, 5-{[4-chloro-1-(cyclopropylmethyl)-1H-benzotriazol-5-yl]ethynyl}pyridin-3-amine], the concentration for a half-maximal effect (EC50) was 98 nM.

With `NC(=O)c1cncc(C#Cc2ccc3c(nnn3CC3CC3)c2Cl)c1` [Example 24, 5-{[4-chloro-1-(cyclopropylmethyl)-1H-benzotriazol-5-yl]ethynyl}pyridine-3-carboxamide], the concentration for a half-maximal effect (EC50) was found to be 42 nM.

Regarding `Fc1cc(C#Cc2ccc3c(nnn3CC3CC3)c2Cl)ccn1` [Example 25, 4-chloro-1-(cyclopropylmethyl)-5-[(2-fluoropyridin-4-yl)ethynyl]-1H-benzotriazole], the concentration for a half-maximal effect (EC50) stood at 77 nM.

Consider `Clc1cc(C#Cc2ccc3c(nnn3CC3CC3)c2Cl)ccn1` [Example 26, 4-chloro-5-[(2-chloropyridin-4-yl)ethynyl]-1-(cyclopropylmethyl)-1H-benzotriazole], for which the half-maximal effective concentration (EC50) amounted to 299 nM.

For `Cc1cc(C#Cc2ccc3c(nnn3CC3CC3)c2Cl)ccn1` [Example 27, 4-chloro-1-(cyclopropylmethyl)-5-[(2-methylpyridin-4-yl)ethynyl]-1H-benzotriazole], the concentration for a half-maximal effect (EC50) was found to be 43 nM.

Regarding `COc1cc(C#Cc2ccc3c(nnn3CC3CC3)c2Cl)ccn1` [Example 28, 4-chloro-1-(cyclopropylmethyl)-5-[(2-methoxypyridin-4-yl)ethynyl]-1H-benzotriazole], the EC50 worked out at 227 nM.

On to `Nc1cc(C#Cc2ccc3c(nnn3CC3CC3)c2Cl)ccn1` [Example 29, 4-{[4-chloro-1-(cyclopropylmethyl)-1H-benzotriazol-5-yl]ethynyl}pyridin-2-amine], for which the half-maximal effective concentration (EC50) was 31 nM.

As to `CN1C(=O)CN(CC#Cc2ccc3c(nnn3CC3CC3)c2Cl)C1=O` [Example 30, 1-{3-[4-Chloro-1-(cyclopropylmethyl)-1H-benzotriazol-5-yl]prop-2-yn-1-yl}-3-methylimidazolidine-2,4-dione], the half-maximal effective concentration (EC50) amounted to 415 nM.

For `C=CC#Cc1ccc2c(nnn2CC2CC2)c1Cl` [Example 31, 5-but-3-en-1-yn-1-yl-4-chloro-1-(cyclopropylmethyl)-1H-benzotriazole], the EC50 was 282 nM.

Take `CN1C(=O)CN(CCCC#Cc2ccc3c(nnn3CC3CC3)c2Cl)C1=O` [Example 32, 1-{5-[4-chloro-1-(cyclopropylmethyl)-1H-benzotriazol-5-yl]pent-4-yn-1-yl}-3-methylimidazolidine-2,4-dione]: the concentration giving a half-maximal response (EC50) worked out at 153 nM.

With `FC(F)(F)c1c(C#Cc2cccnc2)ccc2c1nnn2CC1CC1` [Example 33, 1-(Cyclopropylmethyl)-5-(pyridin-3-ylethynyl)-4-(trifluoromethyl)-1H-benzotriazole], the EC50 amounted to 4.8 nM.

On to `FC(F)(F)c1c(C#Cc2ccccc2)ccc2c1nnn2CC1CC1` [Example 34, 1-(cyclopropylmethyl)-5-(phenylethynyl)-4-(trifluoromethyl)-1H-benzotriazole], for which the concentration giving a half-maximal response (EC50) was found to be 34 nM.

`FC(F)(F)c1c(C#Cc2ccncc2)ccc2c1nnn2CC1CC1` [Example 35, 1-(cyclopropylmethyl)-5-(pyridin-4-ylethynyl)-4-(trifluoromethyl)-1H-benzotriazole]: the 50% effective concentration (EC50) was 12 nM.
